In patent US20090197852A9 (priority 2001, published 2009):
“Also recorded” adds a separate entry of the source. Like-named read-outs stand apart in the source and are kept apart here.

Legend:
[1] = cited from earlier work
[2] = Dose limiting toxicity and adverse events in trial of 17-AAG with trastuzumab; settings: 450 mg/m^2/single administration of 17-AAG once weekly for four weeks
Procedure: The invention was tested in an open-label, dose escalating clinical trial. […] Metastatic disease, if present, was not progressing so as to required palliative treatment. […] Patients were assessed in 4-week cycles.
Dosing. […] If two or more of six evaluable patients entered in a cohort experienced a DLT then the MTD was exceeded; if the previous dose level produced DLT in no more than 1 out of 6 patients, then this dose was considered the MTD and was used for all subsequent patients entered in the phase 2 portion of the study.

[3] = system: lung cancer cells with wild-type Rb; settings: cited from earlier work
[4] = system: colon adenocarcinoma cells; settings: cited from earlier work
[5] = system: SKBr3 breast cancer cells; settings: cited from earlier work
[6] = clinical; settings: human, in vivo; for AUC / AUC(0-t) / Tmax / Cmax: iv; for Cmax: first dose
Procedure: Patients were assessed in 4-week cycles.
PK assessment. PK sampling was obtained during the first treatment cycle only. […] Plasma concentrations were determined by a validated liquid chromatography-mass spectrometry (LC-MS) method.
For patients with a body surface area greater than 2.4 m^2, dosing was calculated using a maximum BSA of 2.4 m^2.
Plasma samples from some of the patients were assayed using a validated good laboratory practice (GLP) compliant analytical method.
All of the patients' plasma samples were analyzed.

[7] = system: solid tumors; settings: cited from earlier work
[8] = system: MEXF 276L melanoma cells; settings: cited from earlier work
[9] = system: metastatic melanoma; settings: cited from earlier work
[10] = patients treated at 56 mg/m^2; cited from earlier work
[11] = 80 mg/m^2 dose level, daily x5, cited from earlier work; for Cmax: read-out: plasma Cmax
[12] = system: NSCLC cells; settings: cited from earlier work
[13] = system: breast cancer cells; settings: cited from earlier work
[14] = system: solid tumors and lymphomas; settings: 3 weeks out of a 4 week cycle, cited from earlier work
[15] = system: advanced solid tumors; settings: cited from earlier work
[16] = system: leukemia cells; settings: cited from earlier work
[17] = free base form; cited from earlier work
[18] = population PK analysis; cited from earlier work
[19] = cellular assays; cited from earlier work
[20] = Cohort 1, 17-AAG 225 mg/m^2 IV over 120 min with trastuzumab, first dose, mean
[21] = Cohort 2, 17-AAG 300 mg/m^2 IV over 120 min with trastuzumab, first dose, mean
[22] = Cohort 3, 17-AAG 375 mg/m^2 IV over 120 min with trastuzumab, first dose, mean
[23] = Cohort 4, 17-AAG 450 mg/m^2 IV over 120 min with trastuzumab, first dose, mean
[24] = All cohorts combined (225-450 mg/m^2), mean
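For AUCext in this document: Open-label dose-escalation clinical trial, plasma drug levels measured by validated LC-MS, sampling during the first 4-week treatment cycle only.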
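For AUCtotal in this document: Open-label dose-escalation clinical trial, plasma drug levels measured by validated LC-MS, sampling during the first 4-week treatment cycle only.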
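For MRT in this document: Open-label dose-escalation clinical trial, plasma drug levels measured by validated LC-MS, sampling during the first 4-week treatment cycle only.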
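For Vss in this document: Open-label dose-escalation clinical trial, plasma drug levels measured by validated LC-MS, sampling during the first 4-week treatment cycle only.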

In the case of C=CCNC1=C2C[C@@H](C)C[C@H](OC)[C@H](O)[C@@H](C)/C=C(\C)[C@H](OC(N)=O)[C@@H](OC)/C=C\C=C(/C)C(=O)NC(=CC1=O)C2=O [17-AAG, 17-allylamino-17-demethoxygeldanamycin], the “relation between dose and area under the curve (AUC)” value ([1]; dose levels studied) is given as “linear correlation”, the “mean volume of distribution” value ([1]; highest dose level 450 mg/m^2) is given as 142.6 L and the DLT [2] is given as “without reaching DLT in any treated patient”. For the same compound, the “effect of exposure on client proteins” value [3] was “degradation of cdk4, cdk6, and cyclin E”, the “effect of exposure on client proteins” value [4] was “depletion of Raf-1, c-Akt, and Erk1/2” and the “effect of exposure on client proteins” value [5] was “depletion of erbB2 and destabilization of Raf-1 and mutant p53”. It also gave an MRT (All cohorts combined, Max) of 11.44 h, a Vss (All cohorts combined, Max) of 308.74 L/m^2 and a t1/2 (All cohorts combined, Max) of 11.42 h. It also gave an MRT (All cohorts combined, Min) of 2.44 h, a t1/2 (All cohorts combined, Min) of 1.33 h and an AUCext [20] of 7.1%. The AUCtotal [20] was 8,539.3 ng/mL*h, the AUMCtotal [20] was 29,168 ng/mL*(h^2) and the Cmax [20] was 3,257.5 ng/mL. For the same compound, the Lz [20] was 0.3804 h⁻¹, the AUCext [21] was 1.6% and the AUCtotal [21] was 16,163 ng/mL*h. For the same compound, the AUMCtotal [21] was 107,072 ng/mL*(h^2), the Lz [21] was 0.1637 h⁻¹ and the AUCext [22] was 2.2%. The AUCtotal [22] was 27,983 ng/mL*h, the AUMCtotal [22] was 124,179 ng/mL*(h^2) and the Lz [22] was 0.1996 h⁻¹. The AUCext [23] was 2.8%, the AUCtotal [23] was 28,425 ng/mL*h and the AUMCtotal [23] was 65,954 ng/mL*(h^2). It also gave a Lz [23] of 0.2037 h⁻¹, a Clearance [6, 24] of 536 mL/min and a Clearance ([6]; All cohorts combined, Median) of 497 mL/min. The MRT [6, 24] was 4.71 h, the MRT ([6]; All cohorts combined, Median) was 4.26 h and the Vd ([6]; Vss, All cohorts combined (225-450 mg/m^2), mean) was 147 ± 94.8 L. It also gave a Vd ([6]; Vss, All cohorts combined, Median) of 128 L, a Vd ([6]; Vz, All cohorts combined (225-450 mg/m^2), mean) of 187 ± 156 L and a Vd ([6]; Vz, All cohorts combined, Median) of 146 L. It also gave an AUC ([6]; 225 mg/m2) of 588 ng·h/mL, an AUC(0-t) ([6]; 225 mg/m2) of 7950 ng·h/mL and a Tmax ([6]; 225 mg/m2) of 1.8 h. It also gave a Cmax ([6]; 225 mg/m2, Cmax, Cohort 1, 17-AAG 225 mg/m^2 IV over 120 min with trastuzumab, mean) of 3260 ng/mL, an AUC ([6]; 300 mg/m2) of 281 ng·h/mL and an AUC(0-t) ([6]; 300 mg/m2) of 15900 ng·h/mL. The Tmax ([6]; 300 mg/m2) was 1.9 h, the Cmax ([6]; 300 mg/m2, Cmax, Cohort 2, 17-AAG 300 mg/m^2 IV over 120 min with trastuzumab, mean) was 4050 ng/mL and the AUC ([6]; 375 mg/m2) was 490 ng·h/mL. It also gave an AUC(0-t) ([6]; 375 mg/m2) of 27500 ng·h/mL, a Tmax ([6]; 375 mg/m2) of 1.9 h and a Cmax ([6]; 375 mg/m2, Cmax, Cohort 3, 17-AAG 375 mg/m^2 IV over 120 min with trastuzumab, mean) of 9400 ng/mL. It also gave an AUC ([6]; 450 mg/m2) of 558 ng·h/mL, an AUC(0-t) ([6]; 450 mg/m2) of 27900 ng·h/mL and a Tmax ([6]; 450 mg/m2) of 2 h. The Cmax ([6]; 450 mg/m2, Cmax, Cohort 4, 17-AAG 450 mg/m^2 IV over 120 min with trastuzumab, mean) was 8110 ng/mL, the half-life ([6]; t1/2, All cohorts combined (225-450 mg/m^2), mean) was 4.13 ± 2.48 h and the half-life ([6]; t1/2, All cohorts combined, Median) was 3.42 h. For the same compound, the dose limiting toxicity ([7]; daily for 5 days every 3 weeks) was “dose limiting reversible hepatotoxicity”, the “maximum tolerated dose (MTD) and recommended Phase 2 dose” value ([7]; daily for 5 days every 3 weeks) was 40 mg/m^2 and the objective tumor responses ([7]; doses up to 110 mg/m^2 daily for 5 days every 3 weeks) was “No objective tumor responses were observed”. The “effect of exposure on client proteins” value [8] was “depletion of Hsp90 and down-regulation of Raf-1 and erbB2”, the “complete or partial responses” value ([9]; once weekly) was “No complete or partial responses were recorded” and the “dose at which dose limiting toxicity was observed” value ([9]; once weekly, elevation of AST) was 450 mg/m^2/week. The stable disease ([9]; patients treated at 320-450 mg/m^2) was “two showed radiologically documented long term stable disease”, the Clearance [10] was 19.9 L/h/m^2 and the Vz [10] was 93 L/m^2. For the same compound, the “average AUC” value [10] was 6,708 nM*h, the Cmax [11] was 2700 nM and the “effect of exposure on client proteins” value [12] was “depletion of erbB1 and erbB2 levels”. The “effect of exposure on client proteins” value [13] was “depletion of steroid receptors”, the MTD ([14]; weekly 17-AAG) was 308 mg/m^2 and the objective tumor responses ([14]; weekly) was “No objective tumor responses have been observed to date in this trial”. The “dose at which nausea and vomiting secondary to pancreatitis and grade 3 fatigue were observed” value ([15]; weekly for 3 out of every 4 weeks) was 395 mg/m^2, the objective tumor responses ([15]; weekly or twice weekly schedules) was “No objective tumor responses have been observed in this trial to date” and the “effect of exposure on client proteins” value [16] was “down-regulation of intracellular Bcr-Abl and c-Raf proteins and reduction of Akt kinase activity”.
In the case of C=CCNc1c(O)cc2c(O)c1C[C@@H](C)C[C@H](OC)[C@H](O)[C@@H](C)/C=C(\C)[C@H](OC(N)=O)[C@@H](OC)/C=C\C=C(/C)C(=O)N2 [17-AAGH2, 17-allylamino-18,21-dihydro-17-demethoxygeldanamycin], the “stability to air oxidation” value [17] is listed as “air oxidizes readily”.
For CO[C@H]1/C=C\C=C(/C)C(=O)NC2=CC(=O)C(N)=C(C[C@@H](C)C[C@H](OC)[C@H](O)[C@@H](C)/C=C(\C)[C@@H]1OC(N)=O)C2=O [17-AG, 17-amino-17-demethoxygeldanamycin], the Clearance [18] is listed as 21.3 L/h, the Clearance [10] is listed as 30.8 L/h/m^2 and the Vz [10] is listed as 203 L/m^2. For the same compound, the “average AUC” value [10] was 5,558 nM*h, the “average t1/2” value [10] was 8.6 h and the t1/2 [11] was 1.75 h. For the same compound, the Cmax [11] was 607 nM and the “activity relative to 17-AAG” value [19] was “equipotent; also recorded: activity approximately equal to that of 17-AAG”.
